We go through eleven molecules from patent EP0268871A1, “Quinoline derivatives” (priority 1986, dated 1988).

acetylcholinesterase, sequence (P22303 32-614): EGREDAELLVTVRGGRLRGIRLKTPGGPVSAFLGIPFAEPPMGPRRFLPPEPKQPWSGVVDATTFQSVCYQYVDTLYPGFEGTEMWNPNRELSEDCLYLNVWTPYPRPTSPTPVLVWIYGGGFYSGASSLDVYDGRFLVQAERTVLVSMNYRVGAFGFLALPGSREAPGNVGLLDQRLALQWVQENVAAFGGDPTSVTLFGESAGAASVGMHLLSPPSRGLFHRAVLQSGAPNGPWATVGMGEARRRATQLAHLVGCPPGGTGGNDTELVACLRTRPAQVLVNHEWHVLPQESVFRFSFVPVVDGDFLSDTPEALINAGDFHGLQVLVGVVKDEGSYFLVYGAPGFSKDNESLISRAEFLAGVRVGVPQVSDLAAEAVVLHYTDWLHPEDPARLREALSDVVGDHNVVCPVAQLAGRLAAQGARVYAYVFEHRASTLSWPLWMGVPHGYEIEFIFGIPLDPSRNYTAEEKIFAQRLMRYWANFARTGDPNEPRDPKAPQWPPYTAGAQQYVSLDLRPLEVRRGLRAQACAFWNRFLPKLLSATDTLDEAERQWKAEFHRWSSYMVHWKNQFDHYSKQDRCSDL

The target of this experiment is acetylcholinesterase (Homo sapiens, UniProt P22303). Description: Determination of inhibitory activity against acetylcholinesterase (photometric method of Ellman et al.). Format: biochemical. Conditions: Relative ratio = IC50 (molar) of Tacrine / IC50 (molar) of test compound; IC50 = concentration of drug which inhibits 50% level of control. How it is done:
Determination of inhibitory activity against acetylcholinesterase
The inhibitory activity against acetylchalinesterase of the compounds provided with the present invention was determined by the photometric methods described in Ellman et al., Biochemical Pharmacology, Vol. 7, p.
(Ellman's reagent forms a yellow product with free thiols.)
`Cc1cccc2nc3c(c(N)c12)CSCC3` [compound 112]: the “Acetylcholinesterase Inhibition (reative ratio*)” value is recorded as 1.30.
With `Nc1c2c(nc3cc(C(F)(F)F)ccc13)CCCC2` [compound 36], the “Acetylcholinesterase Inhibition (reative ratio*)” value is 1.15.
As for `Nc1c2c(nc3cccc(F)c13)CSCC2` [compound 118], the figure is 3.13; as for `Nc1c2c(nc3cccc(F)c13)CCC2` [Example 6], 1.75.
As for `Nc1c2c(nc3cc(F)c(F)cc13)CCCCC2` [compound 38], the figure is 2.04; as for `Nc1c2c(nc3cccc(F)c13)CCCC2` [compound 157], 3.60.
With `Nc1c2c(nc3cc(Cl)ccc13)C1C=CC2CC1` (centres unmarked) [Example 94] the figure was 2.22; with `Cc1cccc2nc3c(c(N)c12)CC(C)C3` (centres unmarked) [Example 14], 1.27.
With `Nc1c2c(nc3cccc(Cl)c13)CSCC2` [compound 149], the “Acetylcholinesterase Inhibition (reative ratio*)” value worked out at 4.12.
For the molecule `Nc1c2c(nc3cc(F)ccc13)CCCC2` [Example 2, 9-amino-6-fluoro-1,2,3,4-tetrahydroacridine], the “Acetylcholinesterase Inhibition (reative ratio*)” value was determined as 2.53.
As for `Nc1c2c(nc3c(F)cccc13)CCCCC2` [compound 156], the figure is 2.50.
